Patent US20240239790A1, “7-Morpholino-1,6-Naphthyridin-5-yl Derivatives and Pharmaceutical Compositions Thereof Useful as DNA-PK Inhibitor” (adMare Therapeutics Society, priority 2021, published 2024)
Where two headings read alike, the source gives them in different places.

Columns and labels:
FaDu cell line = test: Prodrug Activation in Hypoxic Stirred Tumour Cell Suspensions; settings: 10 μM, 4 hours
Protocol: Prodrug compounds were assayed to determine their stability and rate of activation in stirred cell suspensions under 0.2 vs 5% oxygen. Compounds were diluted 1:1000 from DMSO stocks to 10 μM final concentration in tumour cell suspensions (1% by cell volume) in MEM media containing 10% FBS, 10 mM glucose & 3.7 g/L sodium bicarbonate. Cell lines assayed included A253, A549, Detroit562, FaDu, HCT116, HEP G2, HT29, SCC25, SCC9, SiHa & TC32. Compounds and cells were then incubated for 4 hours under constant mixing at 37° C. under 5% CO2 and either 0.2 or 5% O2. Following the incubation period cellular activation of the compounds was assayed via MeOH extraction and HPLC quantification.

[1] = tested on: pH2AX induction in HCT116 ATM-/- multicellular tumour spheroids; test: Prodrug Radiation Sensitization in Multicellular Tumour Spheroids, inhibition of pH2AX induction following radiation; format: cell-based; settings: Homo sapiens, HCT-116, 20 Gy
In short: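 HCT116 and FaDu spheroids (~0.5 mm diameter), ATM-deficient lines included, in MEM/10% FBS/10 mM glucose at 37 °C under 20% vs 5% oxygen with stirring. Prodrugs 10 μM down to 3.5 nM, 20 Gy irradiation. pDNA-PK (ser 2056) or pH2AX (ser 139) scored in formalin-fixed cryosections 1 or 2 h post-radiation.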

[2] = biological target: T1, DNA-PK phosphorylation at Serine 2056 (Homo sapiens, UniProt P78527); test: Cellular Assay for Inhibition of DNA-PK Phosphorylation at Serine 2056 in FaDu cells (sandwich ELISA, neocarzinostatin); format: cell-based; settings: pSer2056 DNA-PK, Table 3
T1 construct: FaDu cells were purchased from ATCC; host or cells: FaDu
In short: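 FaDu cells pre-treated with compound (0.3% DMSO) for 1 h, then neocarzinostatin 1 μg/mL final added for 2 h to induce DSBs. Protein-normalised lysates read by sandwich ELISA for total and pSer2056 DNA-PK; % inhibition normalised between DMSO and NCS controls, IC50 from variable-slope log(inhibitor) fit.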

[3] = 5% O2, inner layers, read-out: Prodrug 5% O2 Inner layers EC50
[4] = 5% O2, outer layers, read-out: Prodrug 5% O2 Outer layers EC50
[5] = 20% O2, outer layers, read-out: Prodrug 20% O2 Outer layers EC50

Fraction of prodrug converted to active form, Hypoxic 0.2% O2 (FaDu cell line) | Fraction of prodrug converted to active form, Oxic 5% O2 (FaDu cell line) | IC50 [2] [nM] | SMILES | EC50 [1, 3] [nM] | EC50 [1, 4] [nM] | EC50 [1, 5] [nM]
B (B is 0.05 to 0.15) | D (D is 0 to 0.02) | 1000 to 10000 | CC(c1cnc([N+](=O)[O-])n1C)N(c1cnc2cc(N3CCOCC3)nc(O[C@H]3CC[C@@H](Nc4cncc(C(F)(F)F)n4)CC3)c2c1)S(C)(=O)=O (stereo partly drawn) [LFA2099, N-[1-(3-methyl-2-nitro-imidazol-4-yl)ethyl]-N-[7-morpholino-5-[4-[[6-(trifluoromethyl)pyrazin-2-yl]amino]cyclohexoxy]-1,6-naphthyridin-3-yl]methanesulfonamide] | 10000 to 100000 | 10000 to 100000 | 10000 to 100000
A (A is 0.15 to 1) | C (C is 0.02 to 0.05) | 10000 to 30000 | Cn1c(COc2cnc3cc(N4CCOCC4)nc(O[C@H]4CC[C@@H](c5cnccn5)CC4)c3c2)cnc1[N+](=O)[O-] [LFA2042, 4-[3-[(3-methyl-2-nitro-imidazol-4-yl)methoxy]-5-(4-pyrazin-2-ylcyclohexoxy)-1,6-naphthyridin-7-yl]morpholine] | 10 to 500 | 1000 to 10000 | 1000 to 10000
B (B is 0.05 to 0.15) | C (C is 0.02 to 0.05) | 100 to 1000 | Cn1c(CN(c2cnc3cc(N4CCOCC4)nc(O[C@H]4CC[C@@H](Nc5ccc(F)cn5)CC4)c3c2)S(C)(=O)=O)cnc1[N+](=O)[O-] [LFA2010, N-[5-[4-[(5-fluoro-2-pyridyl)amino]cyclohexoxy]-7-morpholino-1,6-naphthyridin-3-yl]-N-[(3-methyl-2-nitro-imidazol-4-yl)methyl]methanesulfonamide] | 10 to 500 | 500 to 1000 | 1000 to 10000
B (B is 0.05 to 0.15) | B (B is 0.05 to 0.15) | 1000 to 10000 | CN(C)CCOc1cnc(N[C@H]2CC[C@@H](Oc3nc(N4CCOCC4)cc4ncc(N(Cc5cnn(C)c5[N+](=O)[O-])S(C)(=O)=O)cc34)CC2)nc1 [LFA2075, N-[5-[4-[[5-[2-(dimethylamino)ethoxy]pyrimidin-2-yl]amino]cyclohexoxy]-7-morpholino-1,6-naphthyridin-3-yl]-N-[(1-methyl-5-nitro-pyrazol-4-yl)methyl]methanesulfonamide] | 10 to 500 | 500 to 1000 | 1000 to 10000
B (B is 0.05 to 0.15) | B (B is 0.05 to 0.15) | 1000 to 10000 | CC(c1cnn(C)c1[N+](=O)[O-])N(c1cnc2cc(N3CCOCC3)nc(O[C@H]3CC[C@@H](Nc4ncc(OCCN5CCOCC5)cn4)CC3)c2c1)S(C)(=O)=O (stereo partly drawn) [LFA2077, N-[1-(1-methyl-5-nitro-pyrazol-4-yl)ethyl]-N-[7-morpholino-5-[4-[[5-(2-morpholinoethoxy)pyrimidin-2-yl]amino]cyclohexoxy]-1,6-naphthyridin-3-yl]methanesulfonamide] | 10 to 500 | 500 to 1000 | 10 to 500
B (B is 0.05 to 0.15) | D (D is 0 to 0.02) | 1000 to 10000 | CC(Oc1cnc2cc(N3CCOCC3)nc(O[C@H]3CC[C@@H](Nc4ncc(CN(C)C)cn4)CC3)c2c1)c1cnc([N+](=O)[O-])n1C (stereo partly drawn) [LFA2085, 5-[(dimethylamino)methyl]-N-[4-[[3-[1-(3-methyl-2-nitro-imidazol-4-yl)ethoxy]-7-morpholino-1,6-naphthyridin-5-yl]oxy]cyclohexyl]pyrimidin-2-amine] | 1000 to 10000 | 1000 to 10000 | 1000 to 10000
